Results on four molecules are retold here after patent publication EP3725799B1, “PEPTIDE BINDING TO PL-L1 AND USE THEREOF” (Kyungpook National University Industry-Academic Cooperation …, priority 2017, dated 2025).

No end group written: not given here.

Series [1] in a line: Serum stability of PD-L1 targeting peptides. The class given is in vitro ADME. Conditions: incubated with whole serum obtained from mice up to 24h; HPLC peptide peak. The procedure: Mouse blood was collected and allowed to cloth using a microtube for 15-20 min in RT. Serum was then centrifuged at 12000rpm at 4 °C. The upper portion (serum) was collected for testing the peptide stability. The incubated samples were diluted 100-fold and fractionated by C18 reverse phage high performance liquid chromatography (HPLC) with a linear gradient of acetonitrile (0.1% trifluoroacetate in water for equilibration and 0.1% trifluoroacetate in acetonitrile for elution). The peptide peak was collected and vacuum dried.
To measure the KD values of the peptides SPR assays were performed using a streptavidin chip coated with biotin-peptides (FIG. 3a and FIG. 3b). Four different concentrations of PD-L1 binding peptides were for PD-L1Pep-2. […] PD-L1 expression was then knocked down in the MDA-MB231 cell expressing PD-L1. siRNA was tested at different concentration (FIG. 3d). […] To further examine the stability of PD-L1 binding peptides, the peptide was incubated with whole serum obtained from mice up to 24h.

Series [2] has as its system CT26 mouse syngeneic colon tumor model. Briefly: Combination therapy of PD-L1 binding peptides with doxorubicin (tumor volume, body weight, survival, immune cell analysis by flow cytometry). It counts as in vivo. The procedure:
(§1) 6-8-week-old WT Balb/c mice were purchased. Mice was cared and maintained under the guidelines of the Institutional Animal Care and Use Committee (IACUC) of Kyungpook National University (2014-0001-8.). Tumor was injected onto the lower right flank of the mice. For the in-vivo homing imaging, the tumor was developed for 7 days, after the tumor size reached to 100mm^3, the mice were injected with 100µl of 100mM Flamma-675 NIR fluorescence dye labelled peptides and allow the complete circulation for an hour. After incubation, the mice were anesthetized, and the image was taken using the IVIS imaging system. After completing the imaging, the mice were sacrificed and the tumor along with the other organs were isolated out and subjected to ex-vivo imaging using the IVIS imaging machine. For the antitumor therapy the mice were randomized and grouped after the tumor size was reached to approximately 100mm^3. The peptide was then injected intravenously (5mg/kg) 100µg/mice for 3 weeks, 3 injections/ week. Doxorubicin was injected intraperitoneal (4mg/kg) once a week. Tumor size was measured using a digital caliper, and the tumor volume was calculated using the formula (Volume ¼(L-W-H)/2. (Length: longest dimension, Width: shorter dimension, parallel to the mouse body and Height: perpendicular to the length and width). All mice were checked for the ulceration and at the end of the treatment and the mice were sacrificed for the immune cell analysis.
Tumors were isolated, minced and incubated with a digestion buffer containing collagenase D (5mg/ml) with the RPMI-1640 medium at 37 °C for 40min. The cell suspension was passed through a cell strainer. The single cell suspension was made ready to use and CD45 antibody was used to stain the tumor infiltrating leukocytes and then analyzed with following antibodies for CD4, CD8 and F4/80. The stained cells were then subjected to flow cytometry (Novocyte).
To enhance the efficacy of immunotherapy with PD-L1-binding peptides, the present inventors combined the peptides with doxorubicin, a chemotherapeutic agent known to induce immunogenic cell death, in CT26 mouse syngeneic colon tumor model. PD-L1 peptides doses were reduced from 12 injections to 9 injections and doxorubicin was given once a week (FIG. 6a). The combination therapy controlled the tumor volume more drastically compared to the previous single treatment (FIG. 6b). In addition, the combination therapy maintained the body weight unchanged compared to the control group, and increased the survival percentage (FIG. 6c and FIG. 6d).

Series [3] concerns CT26 syngeneic mouse model. Briefly: Antitumor therapy with PD-L1 binding peptides alone (tumor volume, body weight, survival, immune cell analysis, immunostaining). It counts as in vivo. The settings on record: peptide intravenously every alternative day for 24 days; compared to the control peptide and PBS group. As to the method: as §1, with “After completing the imaging, the mice were sacrificed and the tumor along with the other organs were isolated out and subjected to ex-vivo imaging using the IVIS imaging machine. For the antitumor therapy the mice were randomized and grouped after the tumor size was reached to approximately 100mm^3. The peptide was then injected intravenously (5mg/kg) 100µg/mice for 3 weeks, 3 injections/ week. Doxorubicin was injected intraperitoneal (4mg/kg) once a week.” left out, “analysis. […]” for “analysis.”
Tumors were isolated, minced and incubated with a digestion buffer containing collagenase D (5mg/ml) with the RPMI-1640 medium at 37 °C for 40min. […] The single cell suspension was made ready to use and CD45 antibody was used to stain the tumor infiltrating leukocytes and then analyzed with following antibodies for CD4, CD8 and F4/80. […]

In a further series the target is T1, PD-L1 on MDA-MB231 cells (human, UniProt Q9NZQ7 19-290).
T1 construct: whole, on cells; also called MDA-MB 231 cells expressing PD-L1
T1 sequence (Q9NZQ7 19-290): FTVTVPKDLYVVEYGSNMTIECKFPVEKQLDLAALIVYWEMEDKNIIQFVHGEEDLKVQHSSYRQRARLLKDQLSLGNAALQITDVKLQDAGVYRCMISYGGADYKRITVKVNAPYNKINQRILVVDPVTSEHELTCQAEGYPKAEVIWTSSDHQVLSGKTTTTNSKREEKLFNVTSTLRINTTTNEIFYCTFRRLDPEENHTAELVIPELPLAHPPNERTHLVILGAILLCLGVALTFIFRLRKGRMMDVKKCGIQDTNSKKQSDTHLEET
Briefly: immunofluorescence and flow cytometry, FITC-peptide on MDA-MB231 cells.

Series [4] concerns the target T2, GFP-tagged PD-L1 transiently overexpressed on Hek-293T cells (human, UniProt Q9NZQ7 19-290).
T2 construct: whole, on cells; also called PD-L1-overexpressing cells; not shown: GFP tag
The series can be described thus: immunofluorescence, FITC-peptide on transfected HEK 293T cells.

For series [5], the target named is T2, GFP-tagged PD-L1 transiently …. Briefly: phage peptide display selection on PD-L1 overexpressing cells.
Setting [6] is: 'from' value of the printed increase, apparently single peptide treatment.
Where [7] appears, read: 'to' value of the printed increase, apparently combination with doxorubicin.

T2 sequence (Q9NZQ7 19-290): as above

For CLQKTPKQC [PD-L1Pep-1], in series [1], the “time the peptide peak remained intact in serum” value stood at 8 h. Moreover, in series [2] (setting [6]), the “CD4+ T cells in tumor tissue” value is reported as 0.4% and the “expression percentage of CD8+ T cells in tumor tissue” value is reported as 1.5%. Moreover, in series [2] (setting [7]), the “CD4+ T cells in tumor tissue” value was 6% and the “expression percentage of CD8+ T cells in tumor tissue” value stood at 6.2%. Also, in series [3], the tumor volume entry is listed as “robust effect”.

In the case of CVRARTR [PD-L1Pep-2, CVRARTR], the “time the peptide peak remained intact in serum” value in series [1] is reported as 4 h.

B1: PD-L1Pep-2 (peptide)
peptide: CVRARTR
modifications: also: N-terminal FITC, biotin or Flamma-675 according to assay
notes: Synthetic 7mer (CVRARTR); also called PBP
On to B1, for which the binding result (in the series with PD-L1 on MDA-MB231 cells; in series [4]) was “binds” in each case.

B2: PD-L1Pep-1 (peptide)
peptide: CLQKTPKQC
modifications: cysteine pairing not given here; also: N-terminal FITC, biotin or Flamma-675 according to assay
notes: also called PBP
With B2, the binding result (in series [5]; with PD-L1 on MDA-MB231 cells) was “binds” in each case.
